The source of these data is PubChem BioAssay AID179 (DTP/NCI, 2004).

For this test, the system named is CEM cells HIV-1 protection, formazan growth assay. The test is described as follows: NCI AIDS Antiviral Assay. Conditions: for pIC50: measured here: growth of uninfected CEM cells. Summed up: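 Category rules: moderately active means at least 50% protection on retest, and confirmed active means 100% protection reproducibly. The underlying data came from a formazan growth assay in HIV-1-infected CEM cells.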

Each structure is given as a SMILES string. pEC50, pIC50: −log10 of the molar value. Calls of active or inactive are those of the source.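 Rule for the calls: active = compounds giving half or more protection of infected cells from virus-caused growth loss, again on retest; inactive = the rest.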 Where a SMILES comes first, the peptide text is derived from it. [ ]: non-standard residue; d: D form. The star is where a group is joined. NMeF = CN[CH](Cc1ccccc1)C(=O)O; NMeV = CN[CH](C(=O)O)C(C)C; Boc = CC(C)(C)OC(=O)*

Take `COC(=O)C(Cc1ccccc1)NS(=O)(=O)c1ccc(-c2c3nc(c(-c4ccc(S(=O)(=O)NC(Cc5ccccc5)C(=O)OC)cc4)c4ccc([nH]4)c(-c4ccc(S(=O)(=O)NC(Cc5ccccc5)C(=O)OC)cc4)c4nc(c(-c5ccc(S(=O)(=O)NC(Cc6ccccc6)C(=O)OC)cc5)c5ccc2[nH]5)C=C4)C=C3)cc1` (centres undefined): the pEC50 – broadly, the EC50 on a negative log10 scale, so that one unit is a factor of ten – is less than 3.90 and the pIC50 (commonly −log10 of the IC50, conventionally taken in molar units) was less than 3.90. Take `CCN(CC)CCN1C(=O)c2cccc3cc([N+](=O)[O-])cc(c23)C1=O`: the pEC50 was less than 3.70 and the pIC50 was 5.83. For `Nc1ccnc2c1ncn2[C@H]1C[C@H](O)[C@@H](CO)O1` the same measures were less than 3.70 and less than 3.70. Turning to `ON=C1/C(=N\O)CCC/C1=N/O`, the pEC50 was less than 2.98 and the pIC50 is 4.72. With `CCc1c(O)sc2c(c1=O)C(=NCC(C)C)CC(C)(C)N2`, the pEC50 is less than 4.49 and the negative logarithm of the IC50 (pIC50) was less than 4.49. For `COc1ccccc1-n1c(NN)nc2ccc(Br)cc2c1=O`, the pEC50 is less than 3.86 and the pIC50 is 4.51. For `CS(=O)(=O)c1noc(N)n1` the same measures were less than 2.82 and 2.90. `COc1ccc(C2=[S+]C(c3ccccc3)(c3ccccc3)c3ccccc32)cc1`: the outcome was inactive. As for `O=c1oc2cc(O)ccc2c(O)c1C(c1ccc(/C=C/c2ccccc2)cc1)c1c(O)c2ccc(O)cc2oc1=O`, the pEC50 is less than 3.70 and the negative logarithm of the IC50 (pIC50) is 4.13. For `CC1(C)O[C@@H](CP(c2ccc3ccccc3c2)c2ccc3ccccc3c2)[C@H](CP(c2ccc3ccccc3c2)c2ccc3ccccc3c2)O1` the same measures were less than 3.70 and 3.89. The corresponding values for `N#C/C(=C(\N)c1ccccc1)c1ccccc1` are less than 3.70 and 4.01. For `CCOC(=O)c1c[nH]c2cc3c(cc2c1=O)CCS3` the same measures were less than 3.70 and 3.94.

Turning to `CCOC(=O)N(c1ccccc1)c1cc(=O)n2ccccc2n1`, the pEC50 was less than 3.70 and the pIC50 is less than 3.70. `CC(C)C(NC(=O)OC(C)(C)C)C(=O)N(C)C(Cc1ccccc1)C(=O)N(C)C(C(=O)O)C(C)C` (stereo not drawn) (Boc-Val-[NMeF]-[NMeV]-OH; configuration not given here): the pEC50 was less than 3.70 and the negative-log IC50 (pIC50) is less than 3.70. With `O=c1[nH]n2c(=O)cc[nH]c2c1-c1nnns1`, the pEC50 is less than 4.51 and the pIC50 is less than 4.51.

Turning to `COc1ccc(C2=C(N)c3c(OC)cccc3C2=O)cc1`, the pEC50 is less than 3.70 and the pIC50 was less than 3.70. For `NC(=O)C1C(=O)Oc2cccnc21` (centres undefined), the outcome was inactive. In the case of `CCCCCCCCCCCC1N=C(N)NC(CCCO)=C1C(=O)OC` (centres undefined), the pEC50 is less than 3.70 and the pIC50 was 5.46.

With `O=C(OC[C@H]1C[C@H]2C(=O)OCCC[C@H]2O1)c1ccccc1`, the pEC50 was less than 3.70 and the pIC50 was less than 3.70. With `NC(=O)c1c(NC=O)ncn1C1OCC(O)C(O)C1O` (centres undefined), the pEC50 was less than 3.70 and the pIC50 was less than 3.70. As to `CC1=CC2CCC1(C)C/C2=C(/C)OC=O` (centres undefined), the outcome was inactive. Turning to `N#CC1(Cl)CC2CC1C1N=NN(c3ccccc3)C21` (centres undefined), the pEC50 was less than 3.70 and the negative logarithm of the IC50 (pIC50) was less than 3.70. For the compound `NC(N)=N/N=C/c1oc(-c2ccc(S(=O)(=O)O)o2)c(-c2ccc(S(=O)(=O)O)o2)c1[N+](=O)[O-]`, the pEC50 was less than 3.29 and the negative-log IC50 (pIC50) is less than 3.29. For the compound `CC1(C)CC(=O)C(CC2C(=O)c3ccccc3C2=O)C(=O)C1`, the pEC50 is less than 3.92 and the pIC50 is less than 3.92. As for `Clc1ccc(CCn2ccc3ccccc32)c(Cl)c1`, the pEC50 was less than 3.70 and the negative logarithm of the IC50 (pIC50) was less than 3.70.

In the case of `COC(=O)[C@H](Cc1cn(C(c2ccccc2)(c2ccccc2)c2ccccc2)cn1)NCc1cc(N(C)C)cc(CN[C@@H](Cc2cn(C(c3ccccc3)(c3ccccc3)c3ccccc3)cn2)C(=O)OC)n1`, the pEC50 was less than 4.00 and the pIC50 is 5.23.

As for `CCOC(=O)CC(CC(=O)OCC)n1cnc2c(N)ncnc21`, the result was inactive. Turning to `CCCCN[C@H]1C2C3CC4C5CC(C42)C1(C)C53` (some centres undefined), the pEC50 is less than 3.03 and the pIC50 is 3.42. For `Cc1ccc2c(c1)C(=O)/C(=N/Nc1ccc(Cl)cc1)CCO2` the same measures were less than 3.70 and 3.96. The corresponding values for `O=[N+]([O-])c1cnn(C2=CNc3ccccc3N=C2)c1` are less than 5.13 and less than 5.13. For `CCCCCCCCCCCCCCCC=C(c1cc(Br)c(O)c(C(=O)O)c1)c1cc(Br)c(O)c(C(=O)O)c1` the same measures were less than 3.95 and 4.27. On to `COc1ccc(/C=C/C(=O)N[C@@H]2CCN3CCCC23)cc1` (some centres undefined), for which the result was inactive. As for `O=C(NCc1ccccc1Cl)c1c(O)c2ccccc2[nH]c1=O`, the pEC50 was less than 3.70 and the negative logarithm of the IC50 (pIC50) is less than 3.70.

For `N#CC12C(=O)NC(=O)C1(C#N)C1C=CC2CC1` (centres undefined), the pEC50 was less than 3.70 and the negative-log IC50 (pIC50) was less than 3.70. As for `CCn1c2ccc(C(=O)CCCN3CCCCC3)cc2c2cc(C(=O)CCCN3CCCCC3)ccc21`, the pEC50 was less than 4.36 and the pIC50 was 6.64.

Take `Cc1cc(=O)oc2cc(N(C)C)ccc12`: the pEC50 was less than 4.17 and the negative-log IC50 (pIC50) is 4.43. The corresponding values for `CNC(=S)c1nnsc1N` are less than 3.70 and 6.52.

For the compound `Nc1ncn(C2OC(COP(=O)(O)O)C(O)C2O)c(=O)n1` (centres undefined), the pEC50 is less than 3.70 and the negative-log IC50 (pIC50) was 5.07. For `COC(=O)/C(=C/c1ccc(OC)cc1)C(C(=O)O)=C(C)C` the same measures were less than 3.06 and 4.95. The corresponding values for `O=CC(NC(=O)N(CCCl)N=O)C(O)C(O)C(O)CO` (centres undefined) are less than 3.40 and less than 3.40. As for `Cc1cc2c(cc1C)NC(=O)CC(=O)N2`, the pEC50 was less than 3.70 and the negative logarithm of the IC50 (pIC50) was less than 3.70. Consider `O=C(O)c1cc(CNc2ccc(/C=C/c3ccc(NCc4ccc(O)c(C(=O)O)c4)cc3S(=O)(=O)O)c(S(=O)(=O)O)c2)ccc1O`, for which the pEC50 is 3.99 and the negative logarithm of the IC50 (pIC50) is 3.58. The corresponding values for `CC(C)(C)n1c(=O)n(-c2ccccc2)n(C(C)(C)C)c1=O` are less than 3.70 and less than 3.70. As to `CCC(O)CCCCCCCCCCCCCCC(=O)O` (centres undefined), the outcome was inactive.

`O=C(O)CSCC(=O)Nc1ccc2cccc3c2c1CC3`: the result was inactive. Turning to `COc1ccc(/C(C#N)=C/c2cccc(OC)c2OC)cc1`, the pEC50 is less than 3.70 and the negative-log IC50 (pIC50) is 4.55.

Turning to `N#Cc1ccccc1NC1OCC(O)C(O)C1O` (centres undefined), the result was inactive. For the compound `CCOC(=O)c1c[nH]c2ccc3c(c2c1=O)S(=O)(=O)CC3` (tested in a mixture with another compound), the outcome was inactive. On to `OCC1C(CO)C2CCC1C2(c1ccccc1)c1ccccc1` (centres undefined), for which the pEC50 is less than 4.02 and the pIC50 is 4.22.

On to `O=C(Cc1ccc(Cl)cc1)NC(NC(=O)Cc1ccc(Cl)cc1)C(Cl)(Cl)Cl`, for which the pEC50 was less than 3.70 and the pIC50 is less than 3.70. As for `NC(=O)C(O)C(O)C(N)=O` (centres undefined), the pEC50 was less than 3.34 and the pIC50 was less than 3.34. With `O=C1CN(N2C(=O)CSC2C23CC4CC(CC(C4)C2)C3)C(=O)CN1c1ccccc1` (centres undefined), the pEC50 is less than 3.82 and the pIC50 is less than 3.82.

`C/C=C/C(=O)[C@@H](O)C(C)(C)C`: the outcome was inactive.

In the case of `O=C(N=Nc1cc(Cl)ccc1Cl)NNc1cc(Cl)ccc1Cl`, the pEC50 is less than 3.70 and the pIC50 is 4.95. For `CCCCCCCCCCCCCCCCNc1ccn(C2CC(O)C(COC(c3ccccc3)(c3ccccc3)c3ccc(OC)cc3)O2)c(=O)n1` (centres undefined) the same measures were less than 3.70 and 4.34. The corresponding values for `COc1cccc2c1C(=O)c1c(O)c3c(c(O)c1C2=O)C[C@@](O)(C(C)=O)C[C@@H]3OC1CC(O)C(O)C(C)O1` (some centres undefined) are less than 6.70 and 7.97. The corresponding values for `CN(/N=C/c1ccccn1)C1=NCCCCN1` are less than 3.70 and less than 3.70.

Turning to `O=C1C[C@H](Sc2ccccc2)C2(OCCO2)[C@@H](Sc2ccccc2)C1`, the pEC50 is less than 5.70 and the pIC50 is 5.98. For `Nc1nc([O-])c2c(n1)[n+](C1OC(CO)C(O)C1O)cn2CCO` (centres undefined) the same measures were less than 3.12 and less than 3.12. As to `O=c1ccc2nc3cc(Cl)ccc3sc-2c1`, the pEC50 is less than 5.09 and the pIC50 was 5.66. For `Cc1c(NC(=O)C(=O)N=NC(=O)c2ccncc2)c(O)c2ccccc2c1O`, the outcome was inactive. For the compound `C1=Cc2nc1c(-c1ccncc1)c1ccc([n-]1)c(-c1ccncc1)c1nc(c(-c3ccncc3)c3ccc([n-]3)c2-c2ccncc2)C=C1.[Zn+2]`, the pEC50 is less than 4.72 and the negative logarithm of the IC50 (pIC50) was less than 4.72. As to `CC(C)[C@](O)(C(=O)OCC1=CCN2CC[C@@H](O)[C@@H]12)[C@H](C)O`, the pEC50 is less than 3.38 and the negative logarithm of the IC50 (pIC50) was less than 3.38. Take `CC(C)(C)S(=O)OC12CC3CC(CC(C3)C1)C2` (centres undefined): the pEC50 is less than 3.15 and the pIC50 was 3.82.

Regarding `CN1C[C@H]2[C@@H](C1=O)[C@H](c1ccccc1)ON2C`, the pEC50 was less than 3.70 and the pIC50 is less than 3.70. As for `O=c1[nH]nc(Nc2ccc(Cl)cc2)c2nnn(-c3ccc([N+](=O)[O-])cc3)c12`, the pEC50 was less than 3.70 and the pIC50 was 4.17. The corresponding values for `COc1c(N2CCCCC2)c2c(=O)c3ccccc3oc2c2cc(C)oc12` are less than 3.70 and 4.95.

Regarding `Cc1cc(C)nc(NS(=O)(=O)c2ccc(Nc3c4ccccc4nc4c(C(=O)Nc5ccc(S(=O)(=O)Nc6cc(C)on6)cc5)ccc(Cl)c34)cc2)n1`, the pEC50 is less than 4.33 and the negative logarithm of the IC50 (pIC50) is 4.38. The corresponding values for `CCn1c2c(c3ccccc31)C(c1ccccc1)CC1C(=O)N(c3ccccc3)C(=O)C21` (centres undefined) are less than 4.93 and less than 4.93.

Take `CC(=O)NC(CC(C)C(C)=O)(C(=O)O)C(=O)O` (centres undefined): the pEC50 was less than 3.70 and the pIC50 was less than 3.70.
